The test system of assay [1] is phosphorylated ERK. Particulars: human colonic mucosa / enteroendocrine cells, previously shown; cited from earlier work.
For assay [2] the following is noted: infused into the small intestine through a nasogastric tube; cited from earlier work.
For assay [3] the following is noted: in vivo; cited from earlier work.
Assay [4] has as its system phosphorylated CaMKII. Nature of the assay: pCaMKII activation in human colonic mucosa / proximal colon. It counts as cell-based. The note with it: 100 MM (heading of Example 6), FIG. 9.
Assay [5] concerns phosphorylated ERK. Briefly: pERK activation in human colonic mucosa / proximal colon. It is filed as cell-based.
Assay [6] deals with phosphorylated CaMKII. Particulars: via GPR120, not via pERK; background; cited from earlier work.

“Also recorded” adds a separate entry of the source.

Turning to `CCCCCCCCCCCC(=O)O` [lauric acid], the “activation of intracellular pathway as measured by phosphorylated ERK” value in the assay with phosphorylated ERK [1] is “activates”. Also, the food intake entry in assay [2] is “reduces food intake more potently than other fatty acids”. Besides, in assay [3], the “plasma levels of glucagon-like peptide-1 (GLP-1)” value was “increasing” and the “plasma levels of peptide YY (PYY)” value is listed as “increasing”.

`CC/C=C\C/C=C\C/C=C\CCCCCCCC(=O)O` [ALA, (9Z,12Z,15Z)-9,12,15-Octadecatrienoic acid]: in the assay with phosphorylated CaMKII [4], the “expression of cell activation marker pCamKii” value is “potently induce expression; also recorded: activate”. In the assay on phosphorylated ERK [5] (human colonic mucosa, 100 MM (heading of Example 6), FIG. 9), the “expression of cell activation marker pERK” value is listed as “potently induce expression; also recorded: activate”. Moreover, the “activation of pCalmodulin kinase II (pCAMKII)” value with phosphorylated CaMKII [6] was “activate”.

As to `c1ccc2c(Cc3c[nH]c4ccccc34)c[nH]c2c1` [DIM, 3,3′-diindolylmethane], in the assay on phosphorylated ERK [5] (in combination with GPR120 agonist TUG891 and GPR84 agonist lauric acid (FIG. 8)), the “activation of pERK in colonocytes” value is listed as “potently activates”.

(Values after US12533333B2, “Method of treatment of obesity” (Queen Mary University of London, priority 2016, dated 2026).)
